For series [1], the system named is adults with out-of-hospital cardiac arrest. Further details: method as in PMID 14711909. The note with it: adults with asystolic arrest, cited from earlier work; for rate of survival to hospital admission: p = 0.02; for rate of survival to discharge: p = 0.04. The text has this:
(§1) Vasopressin, an antidiuretic hormone, might be an alternative to epinephrine, as its efficacy is not impaired during metabolic or respiratory acidosis[3],[4],[9].

For series [2], the system named is patients < 18 years of age. Details: method as in PMID 21926666. The note with it: vasopressin (0.8 IU/kg) after an initial epinephrine dose (n = 10) vs ≥ 2 doses of epinephrine; cited from earlier work.
From the text: as §1

The conditions of series [3]: 0.8IU/kg IV vasopressin, four hours after resuscitation; cited from earlier work. The text has this: This may result from the non-statistically significant lower baseline ejection fraction in 0.4IU/kg IO vasopressin piglets compared to 0.8IU/kg IO vasopressin piglets (Table 1).
Series [4] can be described thus: Plasma vasopressin concentrations (ELISA) and non-compartmental pharmacokinetic analysis in neonatal piglets. Particulars: for plasma vasopressin concentrations compared to IV vasopressin / plasma concentrations compared to IV vasopressin / Cmax: ELISA; for Tmax compared to IV vasopressin: p < 0.05; for Cmax: pig, plasma, mean (SD), SD. The format is in vivo, piglet. As to the method: (§2) Piglets were randomized into four routes and various vasopressin doses: (1) IV vasopressin (0.4IU/kg; n = 5, control), (2) IO vasopressin (n = 5/dose; 0.2IU/kg, 0.4IU/kg, or 0.8IU/kg), (3) ETT vasopressin (n = 5/dose; 4IU/kg, 8IU/kg, or 16IU/kg), (4) IN vasopressin (n = 3/dose; 8IU/kg, 16IU/kg, or 32IU/kg). In all groups, a 3mL saline bolus was administered immediately after the vasopressin dose[20],[21].
(§3) Preliminary tests on a few piglets were conducted to determine the optimal ETT vasopressin doses. […] All piglets, regardless of randomization, underwent insertion of an intraosseous needle during surgical instrumentation to ensure each piglet underwent similar surgical procedures. Arterial blood was collected before vasopressin administration (baseline), 1, 2, 3, 4, 5, and 10 min after vasopressin administration. Following final collection of blood, piglets were euthanized with an intravenous overdose of sodium pentobarbital (100 mg/kg).
(§4) Demographics of study piglets were recorded. Transonic flow probes, heart rate, and pressure transducer outputs, and Millar catheter were digitized and recorded with LabChart® programming software (ADInstruments, Houston, TX). Blood samples were collected and centrifuged at 11,000 rpm for five minutes, plasma was then separated and stored at -80 °C. Concentrations of vasopressin were quantified using commercially available ELISA kits (K049-H1, Arbor Assays, Ann Arbor, Michigan, USA). Analysis of pharmacokinetic parameters was performed with the Non-Compartmental Analysis program of the SimBiology Model Analyzer app within MATLAB (MATLAB ver. R2023b, MathWorks, Natick, MA, USA).
The data was tested for normality (Shapiro-Wilk and Kolmogorov-Smirnov test) and compared using ANOVA for repeated measures using Tukey post-test for parametric and Dunn’s test for nonparametric comparisons of continuous variables, and Fisher’s exact test for categorical variables. The data are presented as mean (standard deviation - SD) for normally distributed continuous variables and median (interquartile range - IQR) when the distribution was skewed. P-values are 2-sided and p < 0.05 was considered statistically significant. Statistical analyses were performed with SigmaPlot (Systat Software Inc, San Jose, USA).
Background: ELISA stands for enzyme-linked immunosorbent assay.

The next series deals with neonatal piglets. The series can be described thus: Hemodynamic and cardiac function parameters after vasopressin administration in healthy neonatal piglets. Type of series: in vivo, piglet. The note with it: for ejection fraction / cardiac output: one minute after drug administration, n = 5.
From the text: Piglets were instrumented as previously described with modifications[15]–[17]. Following the induction of anaesthesia using isoflurane, piglets were intubated via a tracheostomy, and pressure-controlled ventilation (Sechrist Infant Ventilator Model IV-100; Sechrist Industries, Anaheim, California) was commenced at a respiratory rate of 16–20 breaths/min and pressure of 20/5 cmH2O. Oxygen saturation was kept within 90–100%, glucose level and hydration was maintained with an intravenous infusion of 5% dextrose at 10 mL/kg/hr. During the experiment anaesthesia was maintained with intravenous propofol 5–10 mg/kg/hr and morphine 0.1 mg/kg/hr. Additional doses of propofol (1–2 mg/kg) and morphine (0.05–0.1 mg/kg) were also given as needed. The piglet’s body temperature was maintained within a normal porcine temperature range of 38.5–39.5 °C using an overhead warmer and a heating pad.
A 5-French Argyle® (Klein-Baker Medical Inc. San Antonio, TX) double-lumen catheter was inserted via the right femoral vein for administration of fluids and medications. A 5-French Argyle® single-lumen catheter was inserted above the right renal artery via the femoral artery for continuous arterial blood pressure monitoring in addition to arterial blood gas measurements. The right common carotid artery was also exposed and encircled with a real-time ultrasonic flow probe (2 mm; Transonic Systems Inc., Ithica, NY) to measure cerebral blood flow[15]–[17]. A Millar® catheter (MPVS Ultra1, ADInstruments, Houston, TX) was inserted into the left ventricle via the left common carotid artery for continuous measurement of stroke volume, ejection fraction, end-diastolic and -systolic volumes, left ventricular pressure, and left ventricular contractile function (dp/dtmax, dp/dtmin)^19,20.
Piglets were placed in supine position and allowed to recover from surgical instrumentation until baseline hemodynamic measures were stable (minimum of one hour). Ventilator rate was adjusted to keep the partial arterial CO2 between 35 and 45 mmHg as determined by periodic arterial blood gas analysis. Mean systemic arterial pressure (MAP), systemic systolic arterial pressure, heart rate, and percutaneous oxygen saturation were continuously measured and recorded throughout the experiment with a Hewlett Packard 78833B monitor (Hewlett Packard Co., Palo Alto, CA)[15]–[17].
as §2, §3
as §4, with “MA, USA). […]” for “MA, USA).”

In another series the test system is pediatric patients. The note with it: 0.4IU/kg/dose IV as rescue therapy; cited from earlier work. From the text: Vasopressin, an antidiuretic hormone, might be an alternative to epinephrine, as its efficacy is not impaired during metabolic or respiratory acidosis[3],[4],[9]. […] Similarly, in a case series of four pediatric patients’ vasopressin at 0.4IU/kg/dose IV administered as rescue thera ...

Setting [5] is: 0.4IU/kg IO vasopressin, vs baseline.
Where [6] appears, read: 0.4IU/kg IV vasopressin (control).

The structures appear in SMILES notation.

For orientation: Cmax means the highest concentration seen after dosing.

Take `CNC[C@H](O)c1ccc(O)c(O)c1` [epinephrine]: in series [1], the “rate of survival to hospital admission” value is on record as 20% and the “rate of survival to discharge” value is recorded as 2%. The 24 h survival in series [2] is 30%.
Regarding `NC(=O)CC[C@@H]1NC(=O)[C@H](Cc2ccccc2)NC(=O)[C@H](Cc2ccc(O)cc2)NC(=O)[C@@H](N)CSSC[C@@H](C(=O)N2CCC[C@H]2C(=O)N[C@@H](CCCN=C(N)N)C(=O)NCC(N)=O)NC(=O)[C@H](CC(N)=O)NC1=O` [vasopressin], the “base excess and lactate concentrations compared to 0.4IU/kg IV vasopressin” value in series [3] is “significantly higher”. Moreover, the “plasma vasopressin concentrations compared to IV vasopressin” value in series [4] (4IU/kg ETT vasopressin, two minutes after drug administration) is recorded as “significantly lower”; in series [4] (8IU/kg ETT vasopressin, three minutes after drug administration) it was “significantly lower”; in series [4] (16IU/kg ETT vasopressin, five minutes after drug administration), “significantly lower”; in series [4] (any IO vasopressin dose (0.2, 0.4, or 0.8IU/kg) vs 0.4IU/kg IV), “no differences”. Also, the “plasma concentrations compared to IV vasopressin” value in series [4] (8IU/kg IN vasopressin, 1-10 min) is “significantly lower plasma concentrations at all measured time points”; in series [4] (16IU/kg IN vasopressin, 1-10 min) it was “significantly lower plasma concentrations at all measured time points”; in series [4] (32IU/kg IN vasopressin, 10-minutes after drug administration), “comparable”. For the same molecule, the “Tmax compared to IV vasopressin” value in series [4] (32IU/kg IN vasopressin) was “significantly higher”; in series [4] (all ETT vasopressin doses (4, 8, 16IU/kg)), “significantly higher”. Besides, the “pharmacokinetic parameters (Cmax, AUC, Tmax, clearance, half-life), IV vs IO” value in series [4] (any IO vasopressin dose vs 0.4IU/kg IV) is given as “comparable”. The Cmax is 0.958 ng/mL in series [4] (endotracheal, 4IU/kg ETT vasopressin, n = 5, p < 0.0001 vs IV); 0.384 ng/mL in series [4] (inhaled or intranasal, 8IU/kg IN vasopressin, n = 3, p < 0.0001 vs IV); 0.399 ng/mL in series [4] (inhaled or intranasal, 16IU/kg IN vasopressin, n = 3, p < 0.0001 vs IV); 2.25 ng/mL in series [4] (0.4IU/kg IV vasopressin (control), n = 5). Moreover, the “time after drug administration for which cardiac output significantly decreased” value with neonatal piglets (0.2IU/kg IO vasopressin) is recorded as “one”; in the series with neonatal piglets (0.4IU/kg IO vasopressin) it was “two”. The “carotid blood flow compared to IV vasopressin” value in the series on neonatal piglets (0.2IU/kg IO vasopressin, for four minutes, vs 0.4IU/kg IV) is reported as “significantly higher”. Also, the “time for which MAP significantly increased” value with neonatal piglets (0.2IU/kg IO vasopressin, vs baseline) is given as “two minutes”; in the series with neonatal piglets (setting [5]) it was “five minutes”; in the series with neonatal piglets (0.4IU/kg IV vasopressin, vs baseline), “five minutes”; in the series with neonatal piglets (0.8IU/kg IO vasopressin, vs baseline) it was “five minutes”. In addition, the “time post-drug administration for which carotid blood flow was decreased” value in the series with neonatal piglets (0.2IU/kg IO vasopressin, comparable to baseline from three to 10 min) is “two”. For the same molecule, the ejection fraction with neonatal piglets (0.4IU/kg IO vasopressin, p = 0.042 vs IV) is on record as 8.4 (7.7–9.8) %; with neonatal piglets (setting [6]), 23.3 (22.5–32.6) %. Further, the “time post-drug administration for which carotid blood flow significantly decreased” value in the series on neonatal piglets (setting [5]) is listed as “five”. For the same molecule, the cardiac output is 193.1 (170.3–365.8) mL/kg/min in the series on neonatal piglets (setting [6]) and 466 (394–558) mL/kg/min in the series with neonatal piglets (4IU/kg ETT vasopressin, p = 0.045 vs IV). In addition, the “MAP and dP/dT minimum, IV vasopressin compared to all IN vasopressin doses” value with neonatal piglets (0.4IU/kg IV vs 8, 16, 32IU/kg IN) is on record as “significantly higher”. For the same molecule, the “dP/dT minimum compared to IV vasopressin” value in the series with neonatal piglets (4IU/kg ETT vasopressin vs 0.4IU/kg IV) and in the series on neonatal piglets (16IU/kg ETT vasopressin vs 0.4IU/kg IV) was “significantly lower” throughout. In addition, the hemodynamic response entry with neonatal piglets (4IU/kg IN vasopressin, preliminary, doses then increased) is “lack of hemodynamic response”. For the same molecule, the “carotid blood flow, IN vasopressin doses compared to IV vasopressin” value with neonatal piglets (8, 16, 32IU/kg IN vs 0.4IU/kg IV) is listed as “higher”. In addition, the “heart rate, dP/dT maximum or minimum compared to baseline values or IV vasopressin” value with neonatal piglets (any IO-administered vasopressin dose (0.2, 0.4, 0.8IU/kg)) was “no significant changes”. For the same molecule, the “changes from baseline in heart rate, carotid blood flow, cardiac output, ejection fraction, stroke volume, dP/dT maximum or minimum” value is given as “no changes” in the series with neonatal piglets (any doses within the IN route (8, 16, 32IU/kg)) and “no changes from baseline” with neonatal piglets (any vasopressin dose administered endotracheally (4, 8, 16IU/kg)). Also, the “rate of survival to hospital admission” value in series [1] was 29%. Moreover, in series [1], the “rate of survival to discharge” value is 5%. Moreover, in the series with pediatric patients, the “achieved ROSC” value was 3/4. Moreover, the “survived > 24 h” value with pediatric patients is reported as 2/4. Moreover, the “survived to hospital discharge” value with pediatric patients was 1/4. Also, in series [2], the 24 h survival is on record as 80%.

The record behind these values is paper PMC11452715, “Pharmacokinetic and pharmacodynamic evaluation of various vasopressin doses and routes of administration in a neonatal piglet model” (Scientific Reports, 2024).
